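Where inhibition never reached the appropriate level, the endpoint shown equals the highest concentration tested. Otherwise, values were interpolated linearly from a five-concentration, 48-hour dose response in 96-well plates. Abbreviation: GI50, concentration required for 50% inhibition of growth.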 Activity calls are given as the source filed them. No stated cut-off is given here; in the data, active = GI50 up to about 1.1 µM and inactive = higher.
Columns and labels:
Experiment in all cases: inhibition of tumour cell growth, NCI panel, 48 h
786-0 = test system: 786-0
A498 = test system: A498
A549 = test system: A549
ACHN = test system: ACHN
BT-549 = test system: BT-549
CAKI-1 = test system: CAKI-1
CCRF-CEM = test system: CCRF-CEM
COLO 205 = test system: COLO 205
DU-145 = test system: DU-145
EKVX = test system: EKVX
HCC 2998 = test system: HCC 2998
HCT-116 = test system: HCT-116
HCT-15 = test system: HCT-15
HOP-62 = test system: HOP-62
HOP-92 = test system: HOP-92
HT-29 = test system: HT-29
IGROV-1 = test system: IGROV-1
K562 = test system: K562
KM12 = test system: KM12
LOX IMVI = test system: LOX IMVI
M14 = test system: M14
MCF7 = test system: MCF7
MDA-MB-231 = test system: MDA-MB-231
MDA-MB-435 = test system: MDA-MB-435
MDA-N = test system: MDA-N
MOLT-4 = test system: MOLT-4
NCI-H226 = test system: NCI-H226
NCI-H23 = test system: NCI-H23
NCI-H460 = test system: NCI-H460
NCI/ADR-RES = test system: NCI/ADR-RES
OVCAR-3 = test system: OVCAR-3
OVCAR-4 = test system: OVCAR-4
OVCAR-5 = test system: OVCAR-5
OVCAR-8 = test system: OVCAR-8
PC-3 = test system: PC-3
RPMI-8226 = test system: RPMI-8226
RXF 393 = test system: RXF 393
SF-295 = test system: SF-295
SF-539 = test system: SF-539
SK-MEL-28 = test system: SK-MEL-28
SK-MEL-2 = test system: SK-MEL-2
SK-MEL-5 = test system: SK-MEL-5
SN12C = test system: SN12C
SNB-19 = test system: SNB-19
SNB-75 = test system: SNB-75
SR = test system: SR
SW-620 = test system: SW-620
T47D = test system: T47D
U-251 = test system: U-251
UACC-257 = test system: UACC-257
UACC-62 = test system: UACC-62
UO-31 = test system: UO-31
Malme-3M = test system: Malme-3M
NCI-H522 = test system: NCI-H522
SF-268 = test system: SF-268
SK-OV-3 = test system: SK-OV-3
TK-10 = test system: TK-10

In the case of `CCOC(=O)c1cn(-c2ccc([N+](=O)[O-])cc2)c(=S)n2c1nc1ccccc12`, the GI50 (786-0) was 30.1 µM (inactive), the GI50 (A498) was 20.6 µM (inactive) and the GI50 (A549) was 36.7 µM (inactive). For the same molecule, the GI50 (ACHN) was 32 µM (inactive), the GI50 (BT-549) was 35 µM (inactive) and the GI50 (CAKI-1) was 42.9 µM (inactive). For the same molecule, the GI50 (CCRF-CEM) was 9.84 µM (inactive), the GI50 (COLO 205) was 23.2 µM (inactive) and the GI50 (DU-145) was 81.7 µM (inactive). The GI50 (EKVX) was 53.7 µM (inactive), the GI50 (HCC 2998) was 23.1 µM (inactive) and the GI50 (HCT-116) was 31.1 µM (inactive). For the same molecule, the GI50 (HCT-15) was 35.4 µM, the GI50 (HOP-62) was 63.2 µM (inactive) and the GI50 (HOP-92) was 18.5 µM (inactive). For the same molecule, the GI50 (HT-29) was 26.4 µM (inactive), the GI50 (IGROV-1) was 54.1 µM (inactive) and the GI50 (K562) was 46.5 µM (inactive). The GI50 (KM12) was 30.1 µM (inactive), the GI50 (LOX IMVI) was 56.5 µM (inactive) and the GI50 (M14) was 61 µM (inactive). For the same molecule, the GI50 (MCF7) was 33.2 µM (inactive), the GI50 (MDA-MB-231) was 30.9 µM (inactive) and the GI50 (MDA-MB-435) was 41.8 µM (inactive). The GI50 (MDA-N) was 39.7 µM (inactive), the GI50 (MOLT-4) was 28 µM (inactive) and the GI50 (NCI-H226) was 37.2 µM (inactive). The GI50 (NCI-H23) was 34.1 µM (inactive), the GI50 (NCI-H460) was 51.5 µM (inactive) and the GI50 (NCI/ADR-RES) was 20.8 µM (inactive). The GI50 (OVCAR-3) was 53.7 µM (inactive), the GI50 (OVCAR-4) was 21.6 µM (inactive) and the GI50 (OVCAR-5) was > 100 µM (inactive). For the same molecule, the GI50 (OVCAR-8) was 35.5 µM (inactive), the GI50 (PC-3) was 13.6 µM (inactive) and the GI50 (RPMI-8226) was 24.6 µM (inactive). The GI50 (RXF 393) was 63.5 µM (inactive), the GI50 (SF-295) was 45.6 µM (inactive) and the GI50 (SF-539) was 32 µM (inactive). For the same molecule, the GI50 (SK-MEL-28) was 49.9 µM (inactive), the GI50 (SK-MEL-2) was 17.8 µM (inactive) and the GI50 (SK-MEL-5) was 21.9 µM (inactive). The GI50 (SN12C) was 50.1 µM (inactive), the GI50 (SNB-19) was 72.6 µM (inactive) and the GI50 (SNB-75) was > 100 µM (inactive). The GI50 (SR) was 39.5 µM (inactive), the GI50 (SW-620) was 47 µM (inactive) and the GI50 (T47D) was 58.6 µM (inactive). The GI50 (U-251) was 36.2 µM (inactive), the GI50 (UACC-257) was 30.7 µM (inactive) and the GI50 (UACC-62) was 31.8 µM (inactive). For the same molecule, the GI50 (UO-31) was 1.83 µM (inactive).
`O=C(Nc1ccc2[nH]c(C(=O)N3CC(CCl)c4c3cc([N+](=O)[O-])c3ccccc43)cc2c1)Nc1ccc2[nH]c(C(=O)N3CC(CCl)c4c3cc([N+](=O)[O-])c3ccccc43)cc2c1` (centres undefined) was tested, and the GI50 (786-0) was > 100 µM (inactive), the GI50 (A498) was > 100 µM (inactive) and the GI50 (A549) was > 100 µM (inactive). For the same molecule, the GI50 (ACHN) was > 100 µM (inactive), the GI50 (BT-549) was > 100 µM (inactive) and the GI50 (CAKI-1) was > 100 µM (inactive). The GI50 (CCRF-CEM) was 22.4 µM (inactive), the GI50 (COLO 205) was > 100 µM (inactive) and the GI50 (DU-145) was > 100 µM (inactive). The GI50 (EKVX) was > 100 µM (inactive), the GI50 (HCT-116) was > 100 µM (inactive) and the GI50 (HCT-15) was > 100 µM. For the same molecule, the GI50 (HOP-62) was > 100 µM (inactive), the GI50 (HOP-92) was > 100 µM (inactive) and the GI50 (KM12) was > 100 µM (inactive). The GI50 (M14) was 31.3 µM (inactive), the GI50 (MCF7) was > 100 µM (inactive) and the GI50 (MDA-MB-231) was 27.5 µM (inactive). For the same molecule, the GI50 (MDA-MB-435) was > 100 µM (inactive), the GI50 (MDA-N) was > 100 µM (inactive) and the GI50 (Malme-3M) was > 100 µM (inactive). The GI50 (NCI-H226) was > 100 µM (inactive), the GI50 (NCI-H23) was > 100 µM (inactive) and the GI50 (NCI-H460) was > 100 µM (inactive). The GI50 (NCI-H522) was > 100 µM (inactive), the GI50 (NCI/ADR-RES) was > 100 µM (inactive) and the GI50 (OVCAR-3) was > 100 µM (inactive). For the same molecule, the GI50 (OVCAR-4) was > 100 µM (inactive), the GI50 (OVCAR-5) was > 100 µM (inactive) and the GI50 (PC-3) was > 100 µM (inactive). For the same molecule, the GI50 (RPMI-8226) was 85.7 µM (inactive), the GI50 (SF-268) was > 100 µM (inactive) and the GI50 (SF-295) was > 100 µM (inactive). For the same molecule, the GI50 (SF-539) was > 100 µM (inactive), the GI50 (SK-MEL-28) was > 100 µM (inactive) and the GI50 (SK-MEL-2) was > 100 µM (inactive). For the same molecule, the GI50 (SK-MEL-5) was > 100 µM (inactive), the GI50 (SK-OV-3) was > 100 µM (inactive) and the GI50 (SN12C) was > 100 µM (inactive). For the same molecule, the GI50 (SNB-19) was > 100 µM (inactive), the GI50 (SNB-75) was > 100 µM (inactive) and the GI50 (T47D) was > 100 µM (inactive). For the same molecule, the GI50 (TK-10) was > 100 µM (inactive), the GI50 (U-251) was > 100 µM (inactive) and the GI50 (UACC-257) was > 100 µM (inactive). For the same molecule, the GI50 (UACC-62) was > 100 µM (inactive) and the GI50 (UO-31) was 17.9 µM (inactive).
With `N#Cc1c(-c2ccccc2)c(CN2CCCCC2)c(=O)n2c1[nH]c1ccccc12` the GI50 (786-0) was 27.9 µM (inactive), the GI50 (A498) was 30.4 µM (inactive) and the GI50 (A549) was 26.7 µM (inactive). The GI50 (ACHN) was 33.7 µM (inactive), the GI50 (BT-549) was 35 µM (inactive) and the GI50 (CAKI-1) was 26.3 µM (inactive). The GI50 (CCRF-CEM) was 25.9 µM (inactive), the GI50 (COLO 205) was 25.6 µM (inactive) and the GI50 (HCC 2998) was 53.8 µM (inactive). The GI50 (HCT-116) was 16.6 µM (inactive), the GI50 (HCT-15) was 32.6 µM and the GI50 (HOP-62) was 20.7 µM (inactive). For the same molecule, the GI50 (IGROV-1) was 19.5 µM (inactive), the GI50 (K562) was 24.7 µM (inactive) and the GI50 (KM12) was 30.1 µM (inactive). The GI50 (LOX IMVI) was 20.7 µM (inactive), the GI50 (M14) was 30.1 µM (inactive) and the GI50 (MCF7) was 13.2 µM (inactive). For the same molecule, the GI50 (MDA-MB-231) was 43.5 µM (inactive), the GI50 (MDA-MB-435) was 41.4 µM (inactive) and the GI50 (MDA-N) was 27.5 µM (inactive). The GI50 (MOLT-4) was 0.0764 µM (active), the GI50 (Malme-3M) was 62.2 µM (inactive) and the GI50 (NCI-H226) was > 100 µM (inactive). For the same molecule, the GI50 (NCI-H23) was 37.9 µM (inactive), the GI50 (NCI-H460) was 25.9 µM (inactive) and the GI50 (NCI-H522) was 24.3 µM (inactive). For the same molecule, the GI50 (NCI/ADR-RES) was 43.2 µM (inactive), the GI50 (OVCAR-3) was 20.4 µM (inactive) and the GI50 (OVCAR-4) was 46.3 µM (inactive). For the same molecule, the GI50 (OVCAR-5) was 34.9 µM (inactive), the GI50 (OVCAR-8) was 30.3 µM (inactive) and the GI50 (PC-3) was 34.9 µM (inactive). The GI50 (RXF 393) was 32.5 µM (inactive), the GI50 (SF-268) was 45.1 µM (inactive) and the GI50 (SF-295) was 36.8 µM (inactive). For the same molecule, the GI50 (SF-539) was 38.1 µM (inactive), the GI50 (SK-MEL-28) was 69.5 µM (inactive) and the GI50 (SK-MEL-2) was 37.3 µM (inactive). The GI50 (SK-MEL-5) was 5.05 µM (inactive), the GI50 (SK-OV-3) was 71 µM (inactive) and the GI50 (SN12C) was 25.1 µM (inactive). The GI50 (SNB-19) was 25.9 µM (inactive), the GI50 (SNB-75) was 81.1 µM (inactive) and the GI50 (SW-620) was 54.3 µM (inactive). For the same molecule, the GI50 (T47D) was 40.9 µM (inactive), the GI50 (TK-10) was 28.4 µM (inactive) and the GI50 (U-251) was 27.1 µM (inactive). For the same molecule, the GI50 (UACC-257) was 42 µM (inactive) and the GI50 (UO-31) was 26.7 µM (inactive).

From ChEMBL document CHEMBL1201862, “PubChem BioAssay data set” (2004)
